# Tests used:
# Type in all cases: cell-based, human
# [1] = tested on: Barx2; assay: Azacytidine demethylation, Barx2 re-expression in OAW42; settings: OAW42, 96 hours, 0.5 μM azacytidine
# Description: OAW42 was exposed to 5-azacytidine for 96 hours at different concentrations. […] Feint expression is seen for barx2 in OAW42 control, but strong induction of barx2 expression is seen at 0.5 μM azacytidine relative to actin signal.
# OAW42 was exposed to 5-azacytidine for 96 hours at different concentrations.
# [2] = tested on: PEO1; assay: 12 day growth inhibition assay with cisplatin, PEO1 with and without Barx2 transfection; settings: PEO1, across the cisplatin concentration range
# From the text: (§1) Transfection of BARX2 into OVCAR3, OAW42, PEO1 and PEO1-CDDP suppresses cell growth. In OAW42, this is accompanied by suppression of matrigel invasion, cell migration and adhesion and partial G1/S-phase block. […] This is consistent with recent thinking for molecular mechanisms of cytotoxicity in clinical cancer, and clonogenic assays are shown in FIG. 35.
# [3] = tested on: PEO1 CDDP cell line; assay: Cisplatin resistance of PEO1 CDDP cell line relative to PEO1; settings: developed by exposing PEO1 to cisplatinum in vitro
# From the text: (§2) In FIG. 4, the 5′ end (F1R1) and the 3′ end (F3R3) of the BarX2 transcript are amplified by RT-PCR using the primers given. PEO1, PEO4, PEO6 and PEOCDDP are four cell lines derived from a patient with ovarian cancer. […] Another cell line PEO4 was derived from the same patient when they relapsed again after treatment with high dose cisplatin chemotherapy in vivo. This cell line is approx four-fold resistant relative to PEO1.
# [4] = tested on: PEO1CDDP; assay: 12 day growth inhibition assay with cisplatin, PEO1CDDP with and without Barx2 transfection; settings: across the cisplatin concentration range
# [5] = tested on: PEO1CDDP; assay: Growth (cell counts) of PEO1CDDP transfectant clones exposed to cisplatinum; settings: day 13
# Description: We tested whether the introduction of Barx2 into PEO1CDDP altered its sensitivity to cisplatinum. 25000 cells were plated. Two days later, varying concentrations of cisplatinum were applied for 3 days, and then removed. Refeeding of the cells was performed every three days until day 13 with cell counts performed every three days.
# CH1.1 is a control PEO1CDDP derivative clone that has been transfected with the pBabe Hygro empty vector (the same vector into which BarX2 was cloned) and behave as the parent line. CB3.6 is a BarX2 transfected growth suppressed clone. Both are exposed to increasing concentrations of cisplatinum.
# The result of this experiment is seen particularly at the 1 μM cisplatinum concentration. Compared with no cisplatinum, the control cell line grows to 85% control at 1 μM cisplatinum at day 13. At the same timepoint and concentration of platinum, the BarX2 transfected platinum resistant cell line grows to only 69% of control. This increase in platinum sensitivity (or reduction in resistance) upon BarX2 transfection is consistent with the observed aberrant expression of the 5′ BarX2 transcript noted by RT-PCR in the PEO series of cell lines. Whether BarX2 induces sensitivity, reduces resistance, or both is not understood and the underlying mechanism is currently being explored.
# [6] = tested on: PEO1 cisplatin sensitive and resistant cell lines; assay: Annexin-V-FACS apoptosis after cisplatin
# Description: Flow-cytometric detection of phosphatidylserine expression in cell lines and MHCs was performed according to the manufacturer's method using the Fluorescein labelled Annexin-V Apoptosis Detection Kit (R&D systems) (Vermes et al, 1995). The measure of early apoptosis derives from the assessment of the proportion of Annexin-V positives Propidium Iodide negative cells.
# as §1
# [7] = tested on: PEO4; assay: Cisplatin resistance of PEO4 cell line relative to PEO1; settings: PEO4, derived after relapse following high dose cisplatin in vivo
# From the text: as §2
# [8] = tested on: PEO1CDDP transfectant cell lines; assay: Clonogenic assay of PEO1CDDP transfectants after cisplatinum exposure; settings: CB1.3, CB3.6 vs CH1.1, CH2.2; 3 day exposure, 1.0 μM cisplatinum; p<0.0001
# Description: FIG. 35. The PEO1CCDP pBABE Hygromycin control transfectant cell lines CH1.1 and CH2.2, and the PEO1CDDP pBABE BARX2 transfectant cell lines CB1.3 and CB3.6, were assayed for survival at day 12 following 3 day exposure to 0 μM, 1.0 μM and 2.0 μM cisplatinum in a clonogenic assay.
SMILES,induction of Barx2 expression [1],change of sensitivity to cisplatin as a result of Barx2 transfection [2],resistance to cisplatin relative to PEO1 [3] [fold],increase of platinum sensitivity by Barx2 transfection [4],"growth compared with no cisplatinum ([5]; BarX2 transfected clone CB3.6, 1 μM cisplatinum for 3 days) [%]","growth compared with no cisplatinum ([5]; control clone CH1.1 (pBabe Hygro empty vector), 1 μM cisplatinum for 3 days) [%]","apoptosis, sensitive versus resistant cell lines ([6]; 1.5 or 5 micromolar cisplatin, between 1 hr and 40 hr)",apoptosis in response to cisplatin in BARX2 transfected cells ([6]; BARX2 transfected PEO1 and PEO1-CDDP),resistance relative to PEO1 [7],increase in platinum sensitivity following BARX2 transfection (survival at day 12) [8]
Nc1ncn([C@@H]2O[C@H](CO)[C@@H](O)[C@H]2O)c(=O)n1 [5-azacytidine],Clear induction,–,–,–,–,–,–,–,–,–
N.N.[Cl][Pt][Cl] [cisplatin],–,not significantly altered,18,six,69,85,no significant differences,no increase in apoptosis,approx four,statistically significant

# Source: US20030087243A1, “Diagnosis, prognosis and treatment of cancer related to the Barx2 gene” (priority 1999, published 2003)
